Results reported in patent US20070128217A1 (priority 2003, published 2007).

Columns and labels:
[1] = system: antibodies in sera from SARS patients (sera 1a, 1b, 2, 6, 37, 62, London, SARS-yellow, SARS-green); type: binding, human; set-up: Binding of serum 6 to linear peptides of protein X1 of SARS-CoV Urbani / Binding of serum 37 to linear peptides of protein X1 of SARS-CoV Urbani / Binding of serum 6 to looped/cyclic peptide (PEPSCAN-ELISA) / Binding of serum 37 to looped/cyclic peptide (PEPSCAN-ELISA) / Binding of serum 37 to looped/cyclic peptides of protein X1 of SARS-CoV Urbani / Binding of serum 6 to linear peptides of protein X2 / Binding of serum 37 to linear peptides of protein X2 / Binding of serum 37 to looped/cyclic peptides of protein X2 of SARS-CoV Urbani / Binding of serum 6 to linear peptides of protein M of SARS-CoV Urbani / Binding of serum 37 to linear peptides of protein M of SARS-CoV Urbani / Binding of serum 6 to looped/cyclic peptides of protein M of SARS-CoV Urbani / Binding of serum 37 to looped/cyclic peptides of protein M of SARS-CoV Urbani / Binding of serum 6 to linear peptides of protein X3 of SARS-CoV Urbani / Binding of serum 37 to linear peptides of protein X3 of SARS-CoV Urbani / Binding of serum 37 to looped/cyclic peptides of protein X3 of SARS-CoV Urbani / Binding of serum 6 to linear peptides of protein X4 of SARS-CoV Urbani / Binding of serum 37 to linear peptides of protein X4 of SARS-CoV Urbani / Binding of serum 37 to looped/cyclic peptides of protein X4 of SARS-CoV Urbani / Binding of serum 6 to linear peptides of protein X5 of SARS-CoV Urbani / Binding of serum 37 to linear peptides of protein X5 of SARS-CoV Urbani / Binding of serum 37 to looped/cyclic peptides of protein X5 of SARS-CoV Urbani / Binding of serum 6 to linear peptides of protein N of SARS-CoV Urbani / Binding of serum 37 to linear peptides of protein N of SARS-CoV Urbani / Binding of serum 6 to linear peptide (PEPSCAN-ELISA) / Binding of serum 1a to looped/cyclic peptides of protein N of SARS-CoV Urbani / Binding of serum 1b to looped/cyclic peptides of protein N of SARS-CoV Urbani / Binding of serum 2 to looped/cyclic peptides of protein N of SARS-CoV Urbani / Binding of serum 6 to looped/cyclic peptides of protein N of SARS-CoV Urbani / Binding of serum 37 to looped/cyclic peptides of protein N of SARS-CoV Urbani / Binding of serum 62 to looped/cyclic peptides of protein N of SARS-CoV Urbani / Binding of serum London to looped/cyclic peptides of protein N of SARS-CoV Urbani / Binding of serum SARS-green to looped/cyclic peptides of protein N of SARS-CoV Urbani: unit not given here
[2] = system: rabbit serum obtained by immunizing a rabbit with the SARS-CoV strain Frankfurt 1; type: binding; set-up: Binding of a rabbit serum to linear peptides / Binding of a rabbit serum to looped peptides / Rabbit serum linear peptides / Rabbit serum looped peptides / Binding of a rabbit serum to linear peptides of protein N of SARS-CoV Urbani (Rabbit serum linear peptides) / Binding of a rabbit serum to looped/cyclic peptides of protein N of SARS-CoV Urbani (Rabbit serum looped peptides): unit not given here
[3] = system: control sera (pooled serum of ten healthy LUMC hospital workers; commercial negative donor pooled serum from the Dutch bloodbank); type: binding, human; set-up: Binding of Control serum LUMC to linear peptides / Binding of Control serum Blood-bank to linear peptides / Binding of Control serum LUMC to looped peptides / Binding of Control Serum Blood-Bank to Looped peptides / Binding of Control serum LUMC to linear peptides of the protein M of SARS-CoV Urbani / Binding of Control serum Blood-bank to linear peptides of the protein M of SARS-CoV Urbani / Binding of Control serum LUMC to looped peptides of the protein M of SARS-CoV Urbani / Binding of Control Serum Blood-Bank to Looped peptides of the protein M of SARS-CoV Urbani: unit not given here
[4] = system: recombinant human anti-SARS-CoV antibody 03-018; type: binding; set-up: Binding of antibody 03-018 to linear peptides of the N protein of SARS-CoV Urbani / Binding of antibody 03-018 to looped/cyclic peptides of the N protein of SARS-CoV Urbani: unit not given here

Sequence | Binding of serum 1a to linear peptides of protein N of SARS-CoV Urbani [1] | Binding of serum 1a to looped/cyclic peptides of protein N of SARS-CoV Urbani [1] | Binding of serum 1b to linear peptides of protein N of SARS-CoV Urbani [1] | Binding of serum 1b to looped/cyclic peptides of protein N of SARS-CoV Urbani [1] | Binding of serum 2 to linear peptides of protein N of SARS-CoV Urbani [1] | Binding of serum 2 to looped/cyclic peptides of protein N of SARS-CoV Urbani [1] | Binding of serum 6 to linear peptides of protein N of SARS-CoV Urbani [1] | Binding of serum 6 to looped/cyclic peptides of protein N of SARS-CoV Urbani [1] | Binding of serum 37 to linear peptides of protein N of SARS-CoV Urbani [1] | Binding of serum 37 to looped/cyclic peptides of protein N of SARS-CoV Urbani [1] | Binding of serum 62 to linear peptides of protein N of SARS-CoV Urbani [1] | Binding of serum 62 to looped/cyclic peptides of protein N of SARS-CoV Urbani [1] | Binding of serum London to linear peptides of protein N of SARS-CoV Urbani [1] | Binding of serum London to looped/cyclic peptides of protein N of SARS-CoV Urbani [1] | Binding of serum SARS-green to linear peptides of protein N of SARS-CoV Urbani [1] | Binding of serum SARS-yellow to linear peptides of protein N of SARS-CoV Urbani [1] | Binding of a rabbit serum to linear peptides of protein N of SARS-CoV Urbani (Rabbit serum linear peptides) [2] | Binding of a rabbit serum to looped/cyclic peptides of protein N of SARS-CoV Urbani (Rabbit serum looped peptides) [2] | Binding of antibody 03-018 to linear peptides of the N protein of SARS-CoV Urbani [4] | Binding of antibody 03-018 to looped/cyclic peptides of the N protein of SARS-CoV Urbani [4] | also measured
KKTDEAQPLPQRQKK | 0.2 | 0.2 | 0.1 | 0.1 | 0.3 | 0.1 | 0.4 | 0.0 | 0.7 | 0.4 | 0.6 | 0.2 | 1.7 | 0.2 | 0.2 | 1.1 | 0.2 | 0.0 | 0.1 | 0.2 | Binding of serum SARS-green to looped/cyclic peptides of protein N of SARS-CoV Urbani [1]: 0.0; Binding of serum SARS-yellow to looped/cyclic peptides of protein N of SARS-CoV Urbani [1]: 0.0; Control Serum Blood-Bank Looped peptides [3]: 0.4; Control serum Blood-bank linear peptides [3]: 0.7; Control serum LUMC linear peptides [3]: 0.7; Control serum LUMC looped peptides [3]: 0.3
QPLPQRQKKQPTVTL | 0.2 | – | 0.2 | – | 0.3 | – | 0.4 | – | 0.6 | – | 0.6 | – | 1.3 | – | 0.2 | 1.3 | 0.1 | 0.7 | 0.1 | 0.3 | Recognition of the peptide by sera of SARS-CoV infected individuals, and form (linear, looped/cyclic) in which it is recognized [1]: recognized in looped/cyclic form; Control Serum Blood-Bank Looped peptides [3]: 1.0; Control serum Blood-bank linear peptides [3]: 0.6; Control serum LUMC linear peptides [3]: 0.5; Control serum LUMC looped peptides [3]: 0.9
NGARPKQRRPQGLPN | 0.2 | 0.3 | 0.1 | 0.2 | 0.2 | 0.3 | 0.1 | 0.4 | 0.7 | 0.6 | 0.5 | 0.5 | 0.4 | 0.5 | 0.3 | 0.5 | 0.1 | 0.3 | 0.1 | 0.3 | Binding of serum SARS-green to looped/cyclic peptides of protein N of SARS-CoV Urbani [1]: 0.4; Binding of serum SARS-yellow to looped/cyclic peptides of protein N of SARS-CoV Urbani [1]: 0.4; Binding of Control Serum Blood-Bank to Looped peptides [3]: 0.6; Binding of Control serum Blood-bank to linear peptides [3]: 0.7; Binding of Control serum LUMC to linear peptides [3]: 0.6; Binding of Control serum LUMC to looped peptides [3]: 0.6
